According to ChEMBL document CHEMBL1136903, “Spiroimidazolidinone NPC1L1 inhibitors. 1: Discovery by 3D-similarity-based virtual screening” (Bioorg Med Chem Lett, 2009):

What was measured:
[1] = target: T1, NPC1-like intracellular cholesterol transporter 1 (Homo sapiens, UniProt Q9UHC9); test: Displacement of [35S](2S,3S,4S,5R,6S)-6-(4-((2S,3R)-3-((S)-3-(4-fluorophenyl)-3-hydroxypropyl)-1-(4-(3-(methylsulfonamido)prop-1-ynyl)phenyl)-4-oxoazetidin-2-yl)phenoxy)-3,4,5-trihydroxytetrahydro-2H-pyran-2-carboxylic acid from human recombinant NPC1L1 expressed in HEK293 cells; format: cell-based
T1 sequence (Q9UHC9 whole entry): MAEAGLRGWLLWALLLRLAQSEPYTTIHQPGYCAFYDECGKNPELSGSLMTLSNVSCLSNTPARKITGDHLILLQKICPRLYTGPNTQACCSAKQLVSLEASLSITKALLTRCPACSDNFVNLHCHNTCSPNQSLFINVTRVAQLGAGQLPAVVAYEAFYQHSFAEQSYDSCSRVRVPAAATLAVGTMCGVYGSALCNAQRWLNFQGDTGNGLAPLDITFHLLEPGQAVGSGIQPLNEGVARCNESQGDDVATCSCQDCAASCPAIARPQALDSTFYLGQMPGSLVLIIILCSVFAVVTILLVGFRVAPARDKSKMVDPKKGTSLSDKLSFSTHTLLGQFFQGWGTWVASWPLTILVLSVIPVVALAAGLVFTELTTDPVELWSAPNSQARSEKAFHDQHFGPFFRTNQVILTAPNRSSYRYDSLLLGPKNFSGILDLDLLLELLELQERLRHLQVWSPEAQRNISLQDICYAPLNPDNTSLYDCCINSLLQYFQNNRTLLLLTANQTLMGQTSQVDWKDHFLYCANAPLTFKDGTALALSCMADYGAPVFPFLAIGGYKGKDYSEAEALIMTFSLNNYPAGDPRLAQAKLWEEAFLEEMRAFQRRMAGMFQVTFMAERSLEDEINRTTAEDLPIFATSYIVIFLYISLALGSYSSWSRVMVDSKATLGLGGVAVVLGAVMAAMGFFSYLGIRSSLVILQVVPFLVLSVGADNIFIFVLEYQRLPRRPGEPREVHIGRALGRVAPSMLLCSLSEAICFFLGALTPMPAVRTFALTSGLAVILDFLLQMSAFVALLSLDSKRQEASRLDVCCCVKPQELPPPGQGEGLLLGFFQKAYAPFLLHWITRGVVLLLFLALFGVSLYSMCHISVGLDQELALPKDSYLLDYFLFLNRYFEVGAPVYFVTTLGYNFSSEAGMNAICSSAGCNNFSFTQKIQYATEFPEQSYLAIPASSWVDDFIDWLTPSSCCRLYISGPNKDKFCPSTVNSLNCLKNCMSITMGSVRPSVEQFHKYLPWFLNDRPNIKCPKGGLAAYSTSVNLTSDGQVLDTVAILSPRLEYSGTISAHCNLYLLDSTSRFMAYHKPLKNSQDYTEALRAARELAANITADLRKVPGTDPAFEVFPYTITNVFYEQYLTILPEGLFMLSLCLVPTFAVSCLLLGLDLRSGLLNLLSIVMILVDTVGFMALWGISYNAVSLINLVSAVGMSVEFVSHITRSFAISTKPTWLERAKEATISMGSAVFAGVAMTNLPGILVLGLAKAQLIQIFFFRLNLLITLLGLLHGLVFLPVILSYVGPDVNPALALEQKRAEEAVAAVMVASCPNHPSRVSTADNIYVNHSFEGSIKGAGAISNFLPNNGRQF

[2] = Displacement of [35S](2S,3S,4S,5R,6S)-6-(4-((2S,3R)-3-((S)-3-(4-fluorophenyl)-3-hydroxypropyl)-1-(4-(3-(methylsulfonamido)prop-1-ynyl)phenyl)-4-oxoazetidin-2-yl)phenoxy)-3,4,5-trihydroxytetrahydro-2H-pyran-2-carboxylic acid from NPC1L1 in hamster enterocyte brush border membrane; design: species or system Cricetinae
[3] = target: T2, Niemann-Pick C1-like 1 protein (Macaca mulatta, UniProt A0MJA5); test: Displacement of [35S](2S,3S,4S,5R,6S)-6-(4-((2S,3R)-3-((S)-3-(4-fluorophenyl)-3-hydroxypropyl)-1-(4-(3-(methylsulfonamido)prop-1-ynyl)phenyl)-4-oxoazetidin-2-yl)phenoxy)-3,4,5-trihydroxytetrahydro-2H-pyran-2-carboxylic acid from NPC1L1 in rhesus monkey enterocyte brush border membrane
T2 sequence (A0MJA5 whole entry): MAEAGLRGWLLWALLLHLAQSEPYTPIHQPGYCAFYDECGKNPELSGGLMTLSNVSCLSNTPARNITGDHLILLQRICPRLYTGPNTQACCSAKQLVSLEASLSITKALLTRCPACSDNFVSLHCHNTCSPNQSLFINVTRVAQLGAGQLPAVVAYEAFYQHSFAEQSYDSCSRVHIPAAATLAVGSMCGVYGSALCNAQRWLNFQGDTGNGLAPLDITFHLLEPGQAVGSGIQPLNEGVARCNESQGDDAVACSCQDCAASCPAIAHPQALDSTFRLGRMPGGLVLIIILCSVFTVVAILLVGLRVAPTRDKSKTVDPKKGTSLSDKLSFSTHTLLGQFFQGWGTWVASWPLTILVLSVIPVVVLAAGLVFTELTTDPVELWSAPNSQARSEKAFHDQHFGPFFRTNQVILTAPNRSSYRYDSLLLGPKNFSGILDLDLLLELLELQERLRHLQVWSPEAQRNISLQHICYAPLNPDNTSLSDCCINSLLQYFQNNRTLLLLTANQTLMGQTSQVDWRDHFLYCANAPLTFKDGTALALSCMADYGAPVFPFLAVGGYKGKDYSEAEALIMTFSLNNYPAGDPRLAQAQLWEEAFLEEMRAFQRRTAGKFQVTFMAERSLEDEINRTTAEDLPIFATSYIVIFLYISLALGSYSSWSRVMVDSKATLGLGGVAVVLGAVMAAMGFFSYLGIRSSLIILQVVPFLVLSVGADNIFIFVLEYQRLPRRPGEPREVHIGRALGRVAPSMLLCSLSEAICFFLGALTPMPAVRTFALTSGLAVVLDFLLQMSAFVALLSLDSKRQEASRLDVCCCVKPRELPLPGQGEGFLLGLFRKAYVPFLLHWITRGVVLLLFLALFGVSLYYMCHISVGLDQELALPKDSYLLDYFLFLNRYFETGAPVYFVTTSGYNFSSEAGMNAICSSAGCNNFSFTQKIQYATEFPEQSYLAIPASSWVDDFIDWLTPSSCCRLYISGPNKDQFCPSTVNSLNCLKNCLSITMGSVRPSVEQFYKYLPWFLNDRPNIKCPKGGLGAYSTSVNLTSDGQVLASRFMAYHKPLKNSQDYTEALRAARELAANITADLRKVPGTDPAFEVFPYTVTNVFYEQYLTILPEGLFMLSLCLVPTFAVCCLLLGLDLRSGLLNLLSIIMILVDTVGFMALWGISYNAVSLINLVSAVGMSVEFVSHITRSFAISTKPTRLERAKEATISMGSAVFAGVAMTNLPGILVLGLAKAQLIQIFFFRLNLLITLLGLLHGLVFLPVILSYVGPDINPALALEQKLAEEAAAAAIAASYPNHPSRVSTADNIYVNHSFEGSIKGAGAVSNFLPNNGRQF

Compound | IC50 [1] [nM] | IC50 [2] [nM] | IC50 [3] [nM]
CC(C)(C)c1ccc(C(=O)N2CCC3(CC2)C(=O)N(CC(=O)N2CCCCC2)CN3c2ccccc2)cc1 | 2500 | 41000 | 77000
CS(=O)(=O)NCC#CN1C(=O)[C@H](CC[C@H](O)c2ccc(F)cc2)[C@H]1c1ccc(O[C@@H]2O[C@H](C(=O)O)[C@@H](O)[C@H](O)[C@H]2O)cc1 | 7 | 22 | 20
O=C([C@@H]1C[C@@H](c2ccccc2)CN1C(=O)c1ccccc1)N1CCC2(C=Cc3ccccc32)CC1 | 660 | 62000 | 146000
O=C(O)[C@H]1O[C@@H](Oc2ccc([C@@H]3[C@@H](CC[C@H](O)c4ccc(F)cc4)C(=O)N3c3ccc(F)cc3)cc2)[C@H](O)[C@@H](O)[C@@H]1O | 300 | 650 | 30
